In brackets after ≈: the same amount, converted by molar mass. Like-named read-outs stand apart in the source and are kept apart here.
Experiments:
[1] = Solubility of paclitaxel/lipid complex in oil (soybean oil, MCO, mixed oil); assay type: physicochemical; settings: for solubility at 1 h: saturated solution
Description: Take 4 g of paclitaxel, add cholesterol, 7-dehydrocholesterol and ergosterol respectively in accordance with the amount ratio as stated in Table 2 below, move to a rotary evaporator together, dissolve with 500 ml of acetone each, mix at 45° C. for 1 hour then remove the solvent by the rotary evaporation method, vacuum dry at 65° C. for 15 hours. Take a quantity of each complex formed, add 20 g of soybean oil for injection used, heat in water bath for 1 hour and shake, obtain saturated solutions.
Using acetone as the solvent, the molar ratio of paclitaxel to cholesterol being 1:1, the reaction temperature at 35° C., the reaction time being 0.5 h, the effect of the paclitaxel concentration (16.0, 8.0, 4.0, 2.0, 1.0 and 0.5 mg/ml) on the complex preparation was investigated.
Filter the solution, take a quantity of the successive filtrate, dilute with absolute ethanol, carry out an HPLC analysis, calculate the solubility of complex in oil; take a quantity of paclitaxel, repeat the procedure.

[2] = Solubility of paclitaxel cholesterol complex in n-octanol; assay type: physicochemical; settings: organic solvent or mixture, thermodynamic from solid, 25° C., saturated solution, read-out: drug solubility in n-octanol
Description: Take 5 ml of the solution, filter by 0.45 μm of membrane, take an amount of the successive filtrate, dilute with absolute ethanol, carry out the ultraviolet spectrophotometry method, calculate the apparent solubility of the physical mixture and cholesterol in n-octanol, compared the results with paclitaxel.

SMILES: CC(=O)O[C@H]1C(=O)[C@@]2(C)[C@H]([C@H](OC(=O)c3ccccc3)[C@]3(O)C[C@H](OC(=O)[C@H](O)[C@@H](NC(=O)c4ccccc4)c4ccccc4)C(C)=C1C3(C)C)[C@]1(OC(C)=O)CO[C@@H]1C[C@@H]2O [Paclitaxel]
- drug solubility in vegetable oil: Mixed oil ([1]; Table 4, soybean oil and MEDIUM CHAIN OIL (volume ratio of 1:1), 60° C.): 1360 µg/mL
- solubility at 1 h ([1]; medium chain oil (MCO), oil or lipid, thermodynamic from solid, Table 4, MEDIUM CHAIN OIL, 60° C., read-out: drug solubility in vegetable oil: MCO): 2370 µg/mL (≈ 2780 µM)
- solubility at 1 h ([1]; oil or lipid, thermodynamic from solid, Table 4, soybean oil for injection, 60° C., read-out: drug solubility in vegetable oil: Soybean oil): 270 µg/mL (≈ 316 µM)
- solubility at 1 h ([1]; soybean oil for injection, oil or lipid, thermodynamic from solid, Table 2, effect of paclitaxel/steroid amount ratio, HPLC, read-out: Solubility in soybean oil): 270 µg/mL
- solubility ([1]; soybean oil, oil or lipid, thermodynamic from solid, Table 1, complexes per CN200810168213.X, calculated as paclitaxel): 270 µg/mL (≈ 316 µM)
- solubility at 24 h [2]: 8860 µg/mL (≈ 10400 µM)

— patent publication US20130150335A1, “PACLITAXEL/STEROIDAL COMPLEX” (Institute of Mataria Medica, Chinese Academy of Medical …, priority 2009, published 2013)
